Source: paper PMC12856317, “A reversible feedback mechanism regulating mitochondrial heme synthesis” (The Journal of Biological Chemistry, 2025)
Substitutions are numbered along the chain they refer to.

Legend:
[1] = biological target: T1, apoALAS2 Cys-mut (C70A/C555A/C558A) (Homo sapiens, UniProt P22557, C555A/C558A/C70A); assay: Inhibitor competition, apoenzyme reactivation by PLP with hemin; assay type: biochemical
T1 construct: Site-directed mutagenesis was performed on the mature ALAS2 (residues 54–587) construct to generate truncations and cysteine mutants; His6-SUMO (N, cleaved yes); made in house; host or cells: Escherichia coli BL21-Codon Plus (DE3)-RIL
T1 sequence (P22557 54-587 C70A/C555A/C558A): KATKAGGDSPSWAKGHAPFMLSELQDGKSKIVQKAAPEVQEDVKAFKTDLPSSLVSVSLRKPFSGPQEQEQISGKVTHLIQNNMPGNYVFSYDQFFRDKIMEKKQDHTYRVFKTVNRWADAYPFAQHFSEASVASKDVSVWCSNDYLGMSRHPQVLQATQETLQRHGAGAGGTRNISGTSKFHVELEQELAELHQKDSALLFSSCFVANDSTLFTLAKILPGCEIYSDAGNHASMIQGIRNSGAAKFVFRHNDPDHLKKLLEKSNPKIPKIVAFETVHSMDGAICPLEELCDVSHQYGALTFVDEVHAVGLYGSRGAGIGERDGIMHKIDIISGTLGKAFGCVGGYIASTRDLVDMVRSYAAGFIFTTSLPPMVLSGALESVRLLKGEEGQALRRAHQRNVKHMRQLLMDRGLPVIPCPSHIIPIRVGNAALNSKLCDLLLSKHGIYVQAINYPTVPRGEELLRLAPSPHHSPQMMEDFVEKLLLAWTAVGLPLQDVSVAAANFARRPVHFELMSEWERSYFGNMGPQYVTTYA
Procedure: (§1) A discontinuous colorimetric activity assay adapted from Shoolingin-Jordan et al. and Bailey et al. was used to measure the enzyme activity ([48], [74]). The reaction was initiated by adding 100 nM purified enzyme to 50 mM potassium phosphate, pH 7.0, 10 mM MgCl2, 1 mM DTT, 100 mM glycine, and 300 μM succinyl-CoA (175 μl total). The reaction was incubated at 37 °C for 15 min and terminated with 100 μl of cold 10% trichloroacetic acid. The precipitated protein was removed by centrifugation for 5 min at 13,000g, and 240 μl of the supernatant was mixed with 240 μl of 1 M sodium acetate, pH 4.6. To derivatize ALA, 20 μl of acetylacetone was added to the mixture and boiled at 100 °C for 10 min. After the sample was cooled for 20 min, 100 μl aliquots were transferred into a clear 96-well plate in triplicate. An equal volume of Ehrlich’s reagent (p-Dimethylaminobenzaldehyde, DMAB) was added to each well, and the absorbance was monitored at 553 nm using a microplate reader (Thermo Fisher Scientific). The peak absorbance value was converted to molar ALA concentration using ε553 = 60,400 M^−1 cm^−1.
(§2) For inhibitor competition experiments, the apoenzymes were preincubated with hemin or PLP (0–100 μM) for 15 min at 25 °C in the dark before initiating the reaction. Next, either PLP or hemin (0–100 μM) was titrated into the reactions to measure enzyme activation after hemin inhibition or enzyme inhibition of the PLP-treated apoenzyme, respectively. For succinyl-CoA:hemin competition analyses, the WT holoenzyme was mixed with hemin (0, 25, 50, and 100 μM), followed by the addition of increasing succinyl-CoA concentrations (0, 25, 50, 100, 250, and 500 μM). All experiments were performed with a minimum of three biological replicates, each with three technical replicates. Data were fit using nonlinear regression to generate an agonist dose-response curve (EC50) or an inhibitor dose-response curve (IC50). Lineweaver-Burk analysis was performed using the resulting kinetic parameters (Vmax and KM) in GraphPad Prism 10.

[2] = biological target: T2, WT holoALAS2 (residues 54–587) (Homo sapiens, UniProt P22557); assay: Succinyl-CoA:hemin competition analysis; assay type: biochemical; conditions: WT holoenzyme
T2 construct: His6-SUMO (N, cleaved yes); made in house; host or cells: Escherichia coli BL21-Codon Plus (DE3)-RIL
T2 sequence (P22557 54-587): T1 sequence (P22557 54-587 C70A/C555A/C558A) with A17C, A502C, A505C
Procedure: as §1, §2

EC50 ([1]; Cys-mut apoALAS2, PLP titration in the presence of 50 μM hemin) | fold lower Vmax ([2]; heme versus no heme, varied succinyl-CoA) | mode of inhibition ([2]; varied succinyl-CoA and heme) | mode of inhibition ([1]; Cys-mut, multiple heme concentrations (Fig. S4)) | Compound
10 ± 4 µM | – | – | – | Cc1ncc(COP(=O)(O)O)c(C=O)c1O [PLP]
– | 8 fold | uncompetitively | allosteric mixed inhibitor | ferric chloride heme [hemin]
